# Patent publication US8450308B2 (Vitae Pharmaceuticals, Inc., priority 2008, dated 2013)
# Target: T1, truncated human beta-secretase (residues 1-458, His6-tagged at the C-terminus) (Homo sapiens, UniProt P56817)
# T1 construct: truncated human beta-secretase (residues 1-458, His6-tagged at the C-terminus); His6 (C); made in house; host or cells: insect cells D. melanogaster S2 (baculovirus expression system (so in the source))
# Test: BACE fluorescence quench assay
# Assay type: biochemical
# Conditions: not given
# Experimental: The assay was performed at room temperature in 96-well white opaque Optiplates aque Optiplates (PerkinElmer, Waltham, Mass.) in a total volume of 200 μl of the incubation mixture containing 50 mM sodium acetate buffer, pH 4.5, 0.4 μM FRET substrate, 2.4 nM enzyme, 5% DMSO, and 0.05% Brij-35. The tested compounds were serially diluted in DMSO and pre-incubated with the substrate. The reaction was started by addition of enzyme, and the progress of the reaction was followed by measuring fluorescence with an excitation wavelength of 480 nm and an emission wavelength of 520 nm. Ten measurements were taken every 5-10 min, and the intensity of fluorescence was regressed against time in order to derive velocities of reaction in all 96 wells. […] IC50 values were calculated by fitting percent inhibition vs. inhibitor concentration into a four-parametric logistic model using XLFit software (IDBS, Guildford, UK).
# T1 sequence (P56817 22-458): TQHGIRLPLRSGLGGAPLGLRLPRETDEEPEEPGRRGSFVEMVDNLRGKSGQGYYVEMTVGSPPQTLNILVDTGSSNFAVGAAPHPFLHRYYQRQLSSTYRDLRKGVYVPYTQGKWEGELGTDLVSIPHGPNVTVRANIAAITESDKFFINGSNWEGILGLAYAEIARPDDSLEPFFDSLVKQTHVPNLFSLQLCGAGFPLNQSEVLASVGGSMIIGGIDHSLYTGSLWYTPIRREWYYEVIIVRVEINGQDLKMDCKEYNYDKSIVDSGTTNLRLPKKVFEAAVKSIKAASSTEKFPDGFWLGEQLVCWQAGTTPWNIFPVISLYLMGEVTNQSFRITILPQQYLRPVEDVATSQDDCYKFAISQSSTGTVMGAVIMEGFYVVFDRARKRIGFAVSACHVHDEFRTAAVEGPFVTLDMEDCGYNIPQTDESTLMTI
row,SMILES,IC50 [µM]
1,"CN1C(=O)C2(CC(c3ccccc3)Oc3ccc(-c4cccc(OC(F)(F)F)c4)cc32)N=C1N (stereo not shown) [Compound 24, 2′-amino-1′-methyl-2-phenyl-6-(3-(trifluoromethoxy)phenyl)spiro[chroman-4,4′-imidazol]-5′(1′H)-one]",1 to 5
2,"CN1C(=O)C2(CC(c3ccccc3)Oc3ccc(-c4ccc(CO)cc4)cc32)N=C1N (stereo not shown) [Compound 26, 2′-amino-6-(4-(hydroxymethyl)phenyl)-1′-methyl-2-phenylspiro[chroman-4,4′-imidazol]-5′(1′H)-one]",1 to 5
3,"CN1C(=O)C2(CC(c3ccccc3)Oc3ccc(-c4ccccc4)cc32)N=C1N (stereo not shown) [Compound 27, 2′-amino-1′-methyl-2,6-diphenylspiro-[chroman-4,4′-imidazol]-5′(1′H)-one]",1 to 5
4,"CN1C(=O)C2(CC(c3ccccc3)Oc3ccc(-c4cccc(S(C)(=O)=O)c4)cc32)N=C1N (stereo not shown) [Compound 28, 2′-amino-1′-methyl-6-(3-(methylsulfonyl)phenyl)-2-phenylspiro[chroman-4,4′-imidazol]-5′(1′H)-one]",1 to 5
5,"CN1C(=O)C2(CC(c3ccccc3)Oc3ccc(-c4cccc(CC#N)c4)cc32)N=C1N (stereo not shown) [Compound 29, 2-(3-(2′-amino-1′-methyl-5′-oxo-2-phenyl-1′,5′-dihydrospiro[chroman-4,4′-imidazole]-6-yl)phenyl)acetonitrile]",1 to 5
6,"CN1C(=O)C2(CC(c3ccccc3)Oc3ccc(-c4cccc(C(F)(F)F)c4)cc32)N=C1N (stereo not shown) [Compound 30, 2′-amino-1′-methyl-2-phenyl-6-(3-(trifluoromethyl)phenyl)spiro[chroman-4,4′-imidazol]-5′(1′H)-one]",1 to 5
7,"CN1C(=O)C2(CC(c3ccccc3)Oc3ccc(-c4cccc(CO)c4)cc32)N=C1N (stereo not shown) [Compound 33, 2′-amino-6-(3-(hydroxymethyl)phenyl)-1′-methyl-2-phenylspiro[chroman-4,4′-imidazol]-5′(1′H)-one]",1 to 5
8,"CN1C(=O)C2(CC(c3ccccc3)Oc3ccc(-c4ccccc4C#N)cc32)N=C1N (stereo not shown) [Compound 35, 2-(2′-amino-1′-methyl-5′-oxo-2-phenyl-1′,5′-dihydrospiro[chroman-4,4′-imidazole]-6-yl)benzonitrile]",1 to 5
9,"CN1C(=O)C2(CC(c3ccccc3)Oc3ccc(-c4cccs4)cc32)N=C1N (stereo not shown) [Compound 36, 2′-amino-1′-methyl-2-phenyl-6-(thiophen-2-yl)spiro[chroman-4,4′-imidazol]-5′(1′H)-one]",1 to 5
10,"CN(C)C(=O)c1cccc(-c2ccc3c(c2)C2(CC(c4ccccc4)O3)N=C(N)N(C)C2=O)c1 (stereo not shown) [Compound 39, 3-(2′-amino-1′-methyl-5′-oxo-2-phenyl-1′,5′-dihydrospiro[chroman-4,4′-imidazole]-6-yl)-N,N-dimethylbenzamide]",1 to 5
11,"CN1C(=O)C2(CC(c3ccccc3)Oc3ccc(-c4ccc(F)c(C(=O)NCCO)c4)cc32)N=C1N (stereo not shown) [Compound 40, 5-(2′-amino-1′-methyl-5′-oxo-2-phenyl-1′,5′-dihydrospiro[chroman-4,4′-imidazole]-6-yl)-2-fluoro-N-(2-hydroxyethyl)benzamide]",1 to 5
12,"CC(=O)Nc1cccc(-c2ccc3c(c2)C2(CC(c4ccccc4)O3)N=C(N)N(C)C2=O)c1 (stereo not shown) [Compound 41, N-(3-(2′-amino-1′-methyl-5′-oxo-2-phenyl-1′,5′-dihydrospiro[chroman-4,4′-imidazole]-6-yl)phenyl)acetamide]",1 to 5
13,"CC(=O)NCc1cccc(-c2ccc3c(c2)C2(CC(c4ccccc4)O3)N=C(N)N(C)C2=O)c1 (stereo not shown) [Compound 43, N-(3-(2′-amino-1′-methyl-5′-oxo-2-phenyl-1′,5′-dihydrospiro[chroman-4,4′-imidazole]-6-yl)benzyl)acetamide]",5 to 10
14,"CN1C(=O)C2(CC(c3ccccc3)Oc3ccc(Br)cc32)N=C1N (stereo not shown) [Compound 44, 2′-amino-6-bromo-1′-methyl-2-phenylspiro[chroman-4,4′-imidazol]-5′(1′H)-one]",10 to 50
15,"CN1C(=O)C2(CC(c3ccccc3)Oc3ccc(-c4cccc(S(=O)(=O)N(C)C)c4)cc32)N=C1N (stereo not shown) [Compound 45, 3-(2′-amino-1′-methyl-5′-oxo-2-phenyl-1′,5′-dihydrospiro[chroman-4,4′-imidazole]-6-yl)-N,N-dimethylbenzenesulfonamide]",5 to 10
16,"CN1C(=O)C2(CC(c3ccccc3)Oc3ccc(-c4cccc(C(=O)NCCC#N)c4)cc32)N=C1N (stereo not shown) [Compound 47, 3-(2′-amino-1′-methyl-5′-oxo-2-phenyl-1′,5′-dihydrospiro[chroman-4,4′-imidazole]-6-yl)-N-(2-cyanoethyl)benzamide]",5 to 10
17,"CNS(=O)(=O)c1cccc(-c2ccc3c(c2)C2(CC(c4ccccc4)O3)N=C(N)N(C)C2=O)c1 (stereo not shown) [Compound 48, 3-(2′-amino-1′-methyl-5′-oxo-2-phenyl-1′,5′-dihydrospiro[chroman-4,4′-imidazole]-6-yl)-N-methylbenzenesulfonamide]",5 to 10
18,"CN1C(=O)C2(CC(c3ccccc3)Oc3ccc(-c4ccc(S(C)(=O)=O)cc4)cc32)N=C1N (stereo not shown) [Compound 49, 2′-amino-1′-methyl-6-(4-(methylsulfonyl)phenyl)-2-phenylspir-o[chroman-4,4′-imidazol]-5′(1′H)-one]",5 to 10
19,"CNC(=O)c1cccc(-c2ccc3c(c2)C2(CC(c4ccccc4)O3)N=C(N)N(C)C2=O)c1 (stereo not shown) [Compound 50, 3-(2′-amino-1′-methyl-5′-oxo-2-phenyl-1′,5′-dihydrospiro[chroman-4,4′-imidazole]-6-yl)-N-methylbenzamide]",5 to 10
20,"CN1C(=O)C2(CC(c3ccccc3)Oc3ccc(-c4cccc(NS(C)(=O)=O)c4)cc32)N=C1N (stereo not shown) [Compound 52, N-(3-(2′-amino-1′-methyl-5′-oxo-2-phenyl-1′,5′-dihydrospiro[chroman-4,4′-imidazole]-6-yl)phenyl)methanesulfonamide]",5 to 10
21,"COCc1ccc(-c2ccc3c(c2)C2(CC(c4ccccc4)O3)N=C(N)N(C)C2=O)cc1 (stereo not shown) [Compound 54, 2′-amino-6-(4-(methoxymethyl)phenyl)-1′-methyl-2-phenylspiro[chroman-4,4′-imidazol]-5′(1′H)-one]",10 to 50
22,"CN1C(=O)C2(CC(c3ccccc3)Oc3ccc(-c4ccc(C(F)(F)F)cc4)cc32)N=C1N (stereo not shown) [Compound 56, 2′-amino-1′-methyl-2-phenyl-6-(4-(trifluoromethyl)phenyl)spiro[chroman-4,4′-imidazol]-5′(1′H)-one]",10 to 50
23,"CN1C(=O)C2(CC(c3ccccc3)Oc3ccc(-c4ccncc4)cc32)N=C1N (stereo not shown) [Compound 58, 2′-amino-1′-methyl-2-phenyl-6-(pyridin-4-yl)spiro[chroman-4,4′-imidazol]-5′(1′H)-one]",10 to 50

# Same assay, conditions: in vitro enzyme activity, BACE fluorescence assay, pH 4.5; read-out: IC50
row,SMILES,IC50 [µM]
1,CN1C(=O)C2(CC(c3cccnc3)Oc3ccc(-c4cccc(C#N)c4)cc32)N=C1N (stereo not shown) [Compound 31],1 to 5
2,"CN1C(=O)C2(CC(C)(c3ccccc3)Oc3ccc(-c4cccc(C#N)c4)cc32)N=C1N (stereo not shown) [Compound 32, 3-(2′-amino-1′,2-dimethyl-5′-oxo-2-phenyl-1′,5′-dihydrospiro[chroman-4,4′-imidazole]-6-yl)benzonitrile]",1 to 5
3,"CN1C(=O)C2(CC(c3cccc(Cl)c3)Oc3ccc(Br)cc32)N=C1N (stereo not shown) [Compound 34, 2′-amino-6-bromo-2-(3-chlorophenyl)-1′-methylspiro[chroman-4,4′-imidazol]-5′(1′H)-one]",1 to 5
4,"CN1C(=O)C2(CC(c3cccc(F)c3)Oc3ccc(Br)cc32)N=C1N (stereo not shown) [Compound 38, 2′-amino-6-bromo-2-(3-fluorophenyl)-1′-methylspiro[chroman-4,4′-imidazol]-5′(1′H)-one]",1 to 5
5,CN1C(=O)C2(CC(c3cccc(F)c3F)Oc3ccc(Br)cc32)N=C1N (stereo not shown) [Compound 42],5 to 10
6,"COc1cccc(C2CC3(N=C(N)N(C)C3=O)c3cc(Br)ccc3O2)c1 (stereo not shown) [Compound 46, 2′-amino-6-bromo-2-(3-methoxyphenyl)-1′-methylspiro[chroman-4,4′-imidazol]-5′(1′H)-one]",5 to 10
7,"CN1C(=O)C2(CC(c3ccc(Cl)cc3)Oc3ccc(Br)cc32)N=C1N (stereo not shown) [Compound 53, 2′-amino-6-bromo-2-(4-chlorophenyl)-1′-methylspiro[chroman-4,4′-imidazol]-5′(1′H)-one]",10 to 50
8,"CCCCNC(=O)c1cccc(-c2ccc3c(c2)[C@]2(C[C@H](c4ccccc4)O3)N=C(N)N(C)C2=O)c1 [Compound 55a, 3-((2R,4S)-2′-amino-1′-methyl-5′-oxo-2-phenyl-1′,5′-dihydrospiro[chroman-4,4′-imidazole]-6-yl)-N-butylbenzamide]",10 to 50
9,"CCCCNC(=O)c1cccc(-c2ccc3c(c2)[C@]2(C[C@@H](c4ccccc4)O3)N=C(N)N(C)C2=O)c1 [Compound 55b, 3-((2S,4S)-2′-amino-1′-methyl-5′-oxo-2-phenyl-1′,5′-dihydrospiro[chroman-4,4′-imidazole]-6-yl)-N-butylbenzamide]",10 to 50
10,"CCCN1C(=O)C2(CC(c3ccccc3)Oc3ccc(Br)cc32)N=C1N (stereo not shown) [Compound 57, 2′-amino-6-bromo-2-phenyl-1′-propylspiro[chroman-4,4′-imidazol]-5′(1′H)-one]",10 to 50
11,"CCCN1C(=O)[C@@]2(C[C@H](c3ccccc3)Oc3ccc(Br)cc32)N=C1N [Compound 57a, (2R,4S)-2′-amino-6-bromo-2-phenyl-1′-propylspiro[chroman-4,4′-imidazol]-5′(1′H)-one]",10 to 50
